What all share (format): cell-based
The target in experiment [1] is TRPML1 (Homo sapiens, UniProt Q9GZU1). The experiment can be described thus: Fluorescent TRPML1 assay (Fluo4-AM calcium fluorescence in doxycycline-induced HEK-293 Trex cells). Summed up:
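First, expression of surface-targeted mutant human TRPML1 is induced in HEK-293 Trex cells with 0.5 ug/mL doxycycline the day before. Next, cells take up 1 micromolar Fluo4-AM in Ringer's with 0.1% Pluronic. Finally, they are added to compounds (6 nanomolar–20 micromolar final) in 10 mM calcium Ringer's and fluorescence is read.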

Experiment [2] deals with T1, TRPML2 (Homo sapiens, UniProt Q8IZK6).
T1 construct: expressed in transfected cells
T1 sequence (Q8IZK6 1-566): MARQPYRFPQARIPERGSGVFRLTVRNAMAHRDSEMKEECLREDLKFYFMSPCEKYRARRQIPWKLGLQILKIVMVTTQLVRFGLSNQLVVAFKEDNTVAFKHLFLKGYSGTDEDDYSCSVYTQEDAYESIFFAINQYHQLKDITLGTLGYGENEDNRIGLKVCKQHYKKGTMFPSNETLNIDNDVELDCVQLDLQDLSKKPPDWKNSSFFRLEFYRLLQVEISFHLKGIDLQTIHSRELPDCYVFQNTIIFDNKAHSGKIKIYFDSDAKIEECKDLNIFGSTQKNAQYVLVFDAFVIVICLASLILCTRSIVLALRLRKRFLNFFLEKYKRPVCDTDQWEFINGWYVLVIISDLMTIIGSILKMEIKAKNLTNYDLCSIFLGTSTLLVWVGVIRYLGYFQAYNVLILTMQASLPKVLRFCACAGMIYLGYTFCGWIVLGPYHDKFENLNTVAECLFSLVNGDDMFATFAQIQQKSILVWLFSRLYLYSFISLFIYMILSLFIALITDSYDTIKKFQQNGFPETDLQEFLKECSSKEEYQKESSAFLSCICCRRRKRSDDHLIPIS
The experiment can be described thus: Fluorescent TRPML2 assay (performed as for TRPML1, substituting the TRPML2 subtype). The method, then: HEK-293 Trex cells were stably transfected with a construct consisting of the human coding sequence for TRPML1 cloned into the […] plasmid pCDNA5 T/O. Mutations were introduced into the TRPML1 sequence to facilitate expression on the cell surface (Silvia Vergarajauregui, Rosa Puertollano, Traffic. 2006 March; 7(3): 337-353). Briefly, the cells are cultured in 150 mm round tissue culture dishes containing 20 mL of media. The day before the assay the cells are rinsed with DPBS-Ca—Mg and then treated briefly with Trypsin-EDTA. The Trypsin-EDTA is diluted with growth media, and cells are counted. 38×10^6 cells are re-plated into 150 mm round tissue culture dishes in media containing 0.5 ug/mL doxycycline to induce expression of hTRPML1.
The day of the experiment cells are lifted from the plates as above and collected by centrifugation. The cells are then suspended in dye loading buffer consisting of Ringer's solution supplemented with 0.1% Pluronic Acid and 1 micromolar Fluo4-AM dye. Cells are loaded for ˜60 minutes in the dark with occasional mixing. The cells are collected by centrifugation, the loading media aspirated, and the cells resuspended in 25 mL Ringer's solution and incubated ˜60 minutes in the dark. The cells are again collected by centrifugation, rinsed in Ringer's Solution and resuspended to […] in modified Ringer's solution containing 10 mM calcium.
Compounds are dissolved to a concentration of 10 millimolar with DMSO. Compound plates are created by dispensing compounds into 384 well black wall clear bottom plates (Greiner 781091). Positive and negative controls are included on each plate. Typically, different amounts of each compound are tested ranging from 100 nanoMoles (20 micromolar final concentration) decreasing in half-log steps to 31 picoMoles (6 nanomolar final concentration). Each concentration is typically tested in triplicate.
50 microliters of dye-loaded cells are dispensed into each well of the compound assay plate created above. The fluorescence in each well is then determined with an excitation wavelength of 480 nm and an emission wavelength of 540 nm using either a Molecular Devices SpectraMax multimode plate reader or a Hamamatsu FDSS/uCell plate imager.
The resulting fluorescence for each well is exported as an ascii file and loaded into our LIMS for analysis. The percent activity of each compound at each concentration is determined by comparison to the positive and negative control wells included in each plate.
TRPML2 and TRPML3 Assays Assays for TRPML2 and TRPML3 were performed as above for TRPML1, by substituting the appropriate TRPML2 or TRPML3 subtype for the TRPML1.
EC50 values were calculated using a non-linear regression of Prism. In the table, “A” indicates an EC50 of less than 100 nM, “B” indicates an EC50 range from 100 nM to 500 nM; “C” indicates an EC50 range from 500 nM to 2 μM; and “D” indicates an EC50 greater than 2 μM.

For experiment [3], the target named is T2, TRPML3 (Homo sapiens, UniProt Q8TDD5).
T2 construct: expressed in transfected cells
T2 sequence (Q8TDD5 1-553): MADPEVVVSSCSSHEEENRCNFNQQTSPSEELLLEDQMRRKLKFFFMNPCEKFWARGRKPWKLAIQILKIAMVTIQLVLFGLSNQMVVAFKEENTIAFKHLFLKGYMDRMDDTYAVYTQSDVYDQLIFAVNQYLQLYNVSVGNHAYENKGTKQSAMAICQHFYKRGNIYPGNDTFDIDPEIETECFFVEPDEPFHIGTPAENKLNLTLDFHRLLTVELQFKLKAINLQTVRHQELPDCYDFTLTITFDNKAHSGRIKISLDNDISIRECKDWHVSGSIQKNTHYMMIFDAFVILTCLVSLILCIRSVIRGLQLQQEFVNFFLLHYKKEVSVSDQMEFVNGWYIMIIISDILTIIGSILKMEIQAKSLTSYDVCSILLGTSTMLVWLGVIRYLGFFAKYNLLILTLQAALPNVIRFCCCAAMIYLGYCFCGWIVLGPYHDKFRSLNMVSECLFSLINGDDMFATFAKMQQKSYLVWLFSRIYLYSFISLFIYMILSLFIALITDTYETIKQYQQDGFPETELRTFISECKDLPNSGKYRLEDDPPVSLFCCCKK
The experiment in a line: Fluorescent TRPML3 assay (performed as for TRPML1, substituting the TRPML3 subtype). Summed up: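 Doxycycline-induced (0.5 ug/mL) HEK-293 Trex cells stably expressing surface-directed mutant channel were loaded with 1 micromolar Fluo4-AM, resuspended in Ringer's with 10 mM calcium and added to compound plates. Fluorescence (ex 480, em 540 nm) gave percent activity versus on-plate controls; EC50 by non-linear regression.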

Like-named read-outs stand apart in the source and are kept apart here.

Sequence of TRPML1 (Q9GZU1 whole entry L15A/L16A/L577A/L578A, form open): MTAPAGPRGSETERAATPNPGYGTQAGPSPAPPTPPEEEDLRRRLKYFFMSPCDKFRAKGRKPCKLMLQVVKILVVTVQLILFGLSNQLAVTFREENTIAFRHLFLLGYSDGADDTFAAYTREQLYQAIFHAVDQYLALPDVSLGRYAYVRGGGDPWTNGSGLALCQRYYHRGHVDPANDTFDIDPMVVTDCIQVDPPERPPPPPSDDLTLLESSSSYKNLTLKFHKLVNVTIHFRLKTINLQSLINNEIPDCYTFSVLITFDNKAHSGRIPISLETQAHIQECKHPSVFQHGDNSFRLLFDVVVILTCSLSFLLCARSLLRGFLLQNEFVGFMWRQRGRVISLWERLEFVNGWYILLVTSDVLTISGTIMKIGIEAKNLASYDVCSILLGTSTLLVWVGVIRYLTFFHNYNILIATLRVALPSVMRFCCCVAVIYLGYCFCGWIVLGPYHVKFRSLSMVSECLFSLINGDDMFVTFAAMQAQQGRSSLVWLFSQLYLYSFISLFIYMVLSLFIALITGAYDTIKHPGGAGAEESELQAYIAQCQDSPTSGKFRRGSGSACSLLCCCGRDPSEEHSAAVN

As for `C[C@H]1CN(C(=O)OC(C)(C)C)CCN1c1ncnc2c1c(-c1ccccc1)cn2-c1cnn(C)c1` [Compound 170, tert-butyl (S)-3-methyl-4-(7-(1-methyl-1H-pyrazol-4-yl)-5-phenyl-7H-pyrrolo[2,3-d]pyrimidin-4-yl)piperazine-1-carboxylate], the 50% effective concentration (EC50) in experiment [1] (fluorescent calcium assay) was 0.1 to 0.5 µM; in experiment [2] (fluorescent calcium assay), 0.5 to 2 µM; in experiment [3] (fluorescent calcium assay), less than 0.1 µM.
With `C[C@@H]1CN(c2ncnc3c2c(N2CCCC2=O)cn3-c2cc(F)c(F)c(F)c2)CCN1C(=O)OC(C)(C)C` [Compound 313, tert-butyl (R)-2-methyl-4-(5-(2-oxopyrrolidin-1-yl)-7-(3,4,5-trifluorophenyl)-7H-pyrrolo[2,3-d]pyrimidin-4-yl)piperazine-1-carboxylate], the EC50 in experiment [1] (fluorescent calcium assay) is more than 2 µM; in experiment [2] (fluorescent calcium assay), more than 2 µM; in experiment [3] (fluorescent calcium assay) it was 0.5 to 2 µM.
In the case of `C[C@H]1CN(C(=O)OC(C)(C)C)CCN1c1ncnc2c1c(N(C)C)cn2-c1cccc(Cl)c1` [Compound 415], the results for the EC50 in experiment [1] (fluorescent calcium assay), in experiment [2] (fluorescent calcium assay) and in experiment [3] (fluorescent calcium assay) were less than 0.1 µM, 0.1 to 0.5 µM and less than 0.1 µM, respectively.
Regarding `CC(C)(C)OC(=O)N1CCN(c2ncnc3c2c(C(F)(F)F)cn3-c2cc(C#N)ccn2)CC1` [Compound 708, tert-butyl 4-(7-(4-cyanopyridin-2-yl)-5-(trifluoromethyl)-7H-pyrrolo[2,3-d]pyrimidin-4-yl)piperazine-1-carboxylate], the half-maximal effective concentration (EC50) in experiment [1], in experiment [2] and in experiment [3] was 0.5 to 2 µM each time.
For `C[C@@H]1CN(c2ncnc3c2c(OC(F)F)cn3-c2cc(Cl)ccn2)[C@@H](C)CN1C(=O)OC(C)(C)C` [Compound 521, tert-butyl (2R,5S)-4-(7-(4-chloropyridin-2-yl)-5-(difluoromethoxy)-7H-pyrrolo[2,3-d]pyrimidin-4-yl)-2,5-dimethylpiperazine-1-carboxylate], the 50% effective concentration (EC50) in experiment [1] was less than 0.1 µM; in experiment [2] it was 0.5 to 2 µM; in experiment [3] it was less than 0.1 µM.
With `C[C@H]1CN(C(=O)OC(C)(C)C)CCN1c1ncnc2c1c(CN1CCCC1)cn2-c1cccc(C#N)c1` [Compound 400, tert-butyl (S)-4-(7-(3-cyanophenyl)-5-(pyrrolidin-1-ylmethyl)-7H-pyrrolo[2,3-d]pyrimidin-4-yl)-3-methylpiperazine-1-carboxylate], the EC50 in experiment [1] (fluorescent calcium assay) is 0.5 to 2 µM; in experiment [2] (fluorescent calcium assay), more than 2 µM; in experiment [3] (fluorescent calcium assay), 0.5 to 2 µM.
Consider `C[C@H]1CN(C(=O)OC(C)(C)C(F)(F)F)CCN1c1ncnc2c1c(C1CC1)cn2-c1cccc(OC(F)(F)F)c1` [Compound 265, 1,1,1-trifluoro-2-methylpropan-2-yl (S)-4-(5-cyclopropyl-7-(3-(trifluoromethoxy)phenyl)-7H-pyrrolo[2,3-d]pyrimidin-4-yl)-3-methylpiperazine-1-carboxylate], for which the EC50 in experiment [1] (fluorescent calcium assay) was less than 0.1 µM; in experiment [2] (fluorescent calcium assay), 0.1 to 0.5 µM; in experiment [3] (fluorescent calcium assay) it was less than 0.1 µM.
As to `C[C@@H]1CN(c2ncnc3c2c(C(F)(F)F)cn3[C@@H]2CCCC(F)(F)C2)[C@@H](C)CN1C(=O)OC(C)(C)C` (single isomer, unassigned) [Compound 714], the results for the EC50 in experiment [1], in experiment [2] and in experiment [3] were 0.1 to 0.5 µM, 0.5 to 2 µM and 0.1 to 0.5 µM, respectively.
In the case of `CC(C)(C)OC(=O)N1CCN(c2ncnc3c2c(-c2cccnc2)cn3-c2cccc(Cl)c2)CC1` [Compound 102, tert-butyl 4-(7-(3-chlorophenyl)-5-(pyridin-3-yl)-7H-pyrrolo [2,3-d]pyrimidin-4-yl)piperazine-1-carboxylate], the EC50 in experiment [1] (fluorescent calcium assay) is less than 0.1 µM; in experiment [2] (fluorescent calcium assay), 0.1 to 0.5 µM; in experiment [3] (fluorescent calcium assay) it was less than 0.1 µM.
Consider `C[C@@H]1CN(c2ncnc3c2c(OC(F)F)cn3-c2cc(C#N)ccn2)[C@@H](C)CN1C(=O)OC(C)(C)C` [Compound 523, tert-butyl (2R,5S)-4-(7-(4-cyanopyridin-2-yl)-5-(difluoromethoxy)-7H-pyrrolo[2,3-d]pyrimidin-4-yl)-2,5-dimethylpiperazine-1-carboxylate], for which the EC50 in experiment [1], in experiment [2] and in experiment [3] was less than 0.1 µM throughout.
Take `CCOC(=O)N1C[C@H](C)N(c2ncnc3c2c(-c2cccnc2)cn3-c2cccc(Cl)c2)C[C@H]1C` [Compound 133, Ethyl (2R,5S)-4-(7-(3-chlorophenyl)-5-(pyridin-3-yl)-7H-pyrrolo[2,3-d]pyrimidin-4-yl)-2,5-dimethylpiperazine-1-carboxylate]: the concentration giving a half-maximal response (EC50) in experiment [1] (fluorescent calcium assay) was 0.1 to 0.5 µM; in experiment [2] (fluorescent calcium assay) it was more than 2 µM; in experiment [3] (fluorescent calcium assay) it was 0.5 to 2 µM.
On to `C[C@H]1CN(C(=O)OC(C)(C)C)CCN1c1ncnc2c1c(C1CC1)cn2-c1cc(C#N)n(C)c1` [Compound 445, tert-butyl (S)-4-(7-(5-cyano-1-methyl-1H-pyrrol-3-yl)-5-cyclopropyl-7H-pyrrolo[2,3-d]pyrimidin-4-yl)-3-methylpiperazine-1-carboxylate], for which the figures for the EC50 in experiment [1] (fluorescent calcium assay), in experiment [2] (fluorescent calcium assay) and in experiment [3] (fluorescent calcium assay) were less than 0.1 µM, 0.1 to 0.5 µM and less than 0.1 µM, respectively.
As to `COC(=O)N1CCN(c2ncnc3c2c(-c2ccccc2F)cn3-c2cc(C#N)ccn2)[C@@H](C)C1` [Compound 351, methyl (S)-4-(7-(4-cyanopyridin-2-yl)-5-(2-fluorophenyl)-7H-pyrrolo[2,3-d]pyrimidin-4-yl)-3-methylpiperazine-1-carboxylate], the EC50 in experiment [1] (fluorescent calcium assay) was less than 0.1 µM; in experiment [2] (fluorescent calcium assay) it was 0.5 to 2 µM.
The matching figures for `C[C@H]1CN(C(=O)OC(C)(C)C)CCN1c1ncnc2c1c(-c1ccccc1)cn2-c1cc(C#N)ccn1` [Compound 320, tert-butyl (S)-4-(7-(4-cyanopyridin-2-yl)-5-phenyl-7H-pyrrolo[2,3-d]pyrimidin-4-yl)-3-methylpiperazine-1-carboxylate]: less than 0.1 µM and 0.1 to 0.5 µM.

For orientation: EC50 means the concentration needed to bring the measured effect to its halfway point.
